According to paper PMC7687371, “Quantitative in Vitro to in Vivo Extrapolation (QIVIVE) for Predicting Reduced Anogenital Distance Produced by Anti-Androgenic Pesticides in a Rodent Model for Male Reproductive Disorders” (Environmental Health Perspectives, 2020):
Like-named read-outs stand apart in the source and are kept apart here.

How the values were obtained:
[1] = design: method as in U.S. EPA 2012; settings: EPI Suite, experimental preferred over modeled; ref U.S. EPA 2012; cited from earlier work
[2] = Fetal chemical exposure analysis (LC-QTOF) at GD21; type: in vivo, rat
In short: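 Rat dams killed at GD21; pooled fetal trunk plasma (by sex, per litter, ~90 min post-dose) and amniotic fluid stored at −80 °C. Samples extracted with acetonitrile (C-18 cleanup) and analysed by positive-ESI LC-QTOF; quantified from (M+H)+ extracted-ion chromatograms ±0.005 Da against matrix-matched plasma standards.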

NCI-H295R cells = test: H295R steroidogenesis assay; type: cell-based, human; settings: for Effect on androgen (steroid) synthesis, in words: H295R steroidogenesis assay; for IC50 / IC20: Homo sapiens; for IC50: 48 h; for IC20: read-out: Testosterone inhibition (IC20 µM)
In short: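 Human adrenocortical NCI-H295R cells exposed 48 h to compounds in 2-fold dilutions from 0.8 to 50 μM (0.1% DMSO), three independent experiments. Ten steroid hormones in medium measured by LC-MS/MS and normalized to solvent controls; viability checked by MTT.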

[3] = PBK model first-order kinetic parameters fitted to in vivo ADME data; design: species or system rat; settings: PBK model parameter; for Metabolism rate in liver, Total (L/h) KMetab: metabolic clearance
[4] = NCI-H295R, read-out: Testosterone inhibition (IC50, μM)

| Compound | log Kow [1] | Effect on androgen (steroid) synthesis, in words (NCI-H295R cells) | IC50 (NCI-H295R cells; [4]) | Corticosterone, LOEC (NCI-H295R cells; multiple contrast tests) | Estradiol, LOEC (NCI-H295R cells; multiple contrast tests) | OH-Progesterone, LOEC (NCI-H295R cells; multiple contrast tests) | Fecal excretion rate from gut (L/h) KFeces [3] | Portal GI absorption rate into liver (L/h) KAS [3] | Urine excretion rate from kidney (L/h) KUrine [3] | Metabolism rate in liver, Total (L/h) KMetab [3] | further results |
| --- | --- | --- | --- | --- | --- | --- | --- | --- | --- | --- | --- |
| COc1ccc(C(=CC(=O)N2CCOCC2)c2ccc(Cl)cc2)cc1OC [Dimethomorph, dimethomorph] | 2.68 | inhibited testosterone synthesis | > 50 µM | 0.8 µM | 0.8 µM | 12.5 µM | 2 L/h | 1 L/h | 0.01 L/h | 0.3 L/h | Measured concentration in male fetuses ([2]; fetal plasma GD21, dams dosed 20 mg/kg BW per day (Study 3)): 1.35 µM; Androstenedione (relative to controls), mean (NCI-H295R cells; 0.8 µM): 0.83; Testosterone (relative to controls), mean (NCI-H295R cells; 0.8 µM): 0.88; Androstenedione (relative to controls), mean (NCI-H295R cells; 1.6 µM): 0.81; Testosterone (relative to controls), mean (NCI-H295R cells; 1.6 µM): 0.84; Androstenedione (relative to controls), mean (NCI-H295R cells; 3.1 µM): 0.80; Testosterone (relative to controls), mean (NCI-H295R cells; 3.1 µM): 0.76; Androstenedione (relative to controls), mean (NCI-H295R cells; 6.3 µM): 0.89; Testosterone (relative to controls), mean (NCI-H295R cells; 6.3 µM): 0.74; Androstenedione (relative to controls), mean (NCI-H295R cells; 12.5 µM): 0.77; Testosterone (relative to controls), mean (NCI-H295R cells; 12.5 µM): 0.68; Androstenedione (relative to controls), mean (NCI-H295R cells; 25 µM): 0.70; Testosterone (relative to controls), mean (NCI-H295R cells; 25 µM): 0.73; Androstenedione (relative to controls), mean (NCI-H295R cells; 50 µM): 0.67; Testosterone (relative to controls), mean (NCI-H295R cells; 50 µM): 0.67; IC20 (NCI-H295R cells; NCI-H295R): 2800 nM; DHEA, LOEC (NCI-H295R cells; multiple contrast tests): 25 µM |
| N#Cc1c[nH]cc1-c1cccc2c1OC(F)(F)O2 [Fludioxonil, fludioxonil] | 4.12 | inhibited testosterone synthesis | – | 12.5 µM | 3.1 µM | 3.1 µM | 3 L/h | 1 L/h | 0.01 L/h | 0.3 L/h | Measured concentration in male fetuses ([2]; fetal plasma GD21, dams dosed 60 mg/kg BW per day (Study 3)): 3.3 µM; IC50 (NCI-H295R cells; NCI-H295R cells, NA = not active up to 50μM, read-out: Testosterone inhibition (IC50)): 10.8 µM; IC20 (NCI-H295R cells; NCI-H295R cells): 1300 nM; Androstendione, LOEC (NCI-H295R cells; multiple contrast tests): 25 µM; Testosterone, lowest observed effect concentration (LOEC) (NCI-H295R cells; multiple contrast tests): 1.6 µM |
| CC12CC1(C)C(=O)N(c1cc(Cl)cc(Cl)c1)C2=O (centres unmarked) [Procymidone, procymidone, reference compound] | 3.08 | inhibited the synthesis of androgens | 6 µM | – | – | – | 0.04 L/h | – | 0.08 L/h | – | Measured concentration in male fetuses ([2]; male, Sprague-Dawley, rat, in vivo, 40 mg/kg/day): 7.8 µM |
